# Measurements taken from patent publication US20120295907A1, “INSECTICIDAL COMPOUNDS” (SYNGENTA CROP PROTECTION, LLC, priority 2009, published 2012).
# Columns and labels:
# Spodoptera littoralis = Spodoptera littoralis (Egyptian Cotton Leafworm) cotton leaf disc spray test; format: in vivo; conditions: foliar, 72 h, 200 ppm spray on cotton leaf discs, L1 larvae, mortality, feeding behavior, growth regulation 3 DAT
# Heliothis virescens = Heliothis virescens (Tobacco Budworm) egg test on artificial diet; format: in vivo; conditions: 96 h, 200 ppm (concentration in well 18 ppm), eggs 0-24 h old on artificial diet, 4 days, egg mortality, larval mortality, growth regulation
# Plutella xylostella = Plutella xylostella (Diamond Back Moth) artificial diet MTP test; format: in vivo; conditions: 144 h, 200 ppm (concentration in well 18 ppm), L2 larvae, 6 days, larval mortality, growth regulation
# Diabrotica balteata = Diabrotica balteata (Corn Root Worm) artificial diet MTP test; format: in vivo; conditions: 120 h, 200 ppm (concentration in well 18 ppm), L2 larvae, 5 days, larval mortality, growth regulation
# Thrips tabaci = Thrips tabaci (Onion Thrips) sunflower leaf disc spray test; format: in vivo; conditions: foliar, 168 h, 200 ppm spray on sunflower leaf discs, population of mixed ages, 7 days, mortality
# Tetranychus urticae = Tetranychus urticae (Two-Spotted Spider Mite) bean leaf disc spray test; format: in vivo; conditions: foliar, 192 h, 200 ppm spray on bean leaf discs, mite populations of mixed ages, 8 days, egg, larval and adult mortality, read-out: control of Tetranychus urticae
# Myzus persicae = Myzus persicae (Green Peach Aphid) sunflower leaf disc spray test; format: in vivo; conditions: foliar, 144 h, 200 ppm spray on sunflower leaf discs, aphid population of mixed ages, 6 DAT, mortality
Compound,melting point,pest or weed control at 200 ppm (Spodoptera littoralis),pest or weed control at 200 ppm (Heliothis virescens),pest or weed control at 200 ppm (Plutella xylostella),pest or weed control at 200 ppm (Diabrotica balteata),pest or weed control at 200 ppm (Thrips tabaci),pest or weed control at 200 ppm (Tetranychus urticae),pest or weed control at 200 ppm (Myzus persicae)
COc1c(NC(=O)c2cc(C)c([N+](=O)[O-])c(C)c2)cccc1C(=O)Nc1c(Cl)cc(C(F)(C(F)(F)F)C(F)(F)C(F)(F)F)cc1Br (centres unmarked) [B165],218 °C,–,–,–,–,–,–,–
CCOc1cc(C(=O)Nc2cccc(C(=O)Nc3c(Cl)cc(C(F)(C(F)(F)F)C(F)(F)C(F)(F)F)cc3Br)c2OC)ccc1[N+](=O)[O-] (centres unmarked) [B173],238 °C,–,–,–,–,–,–,–
COc1cc([N+](=O)[O-])ccc1C(=O)Nc1cccc(C(=O)Nc2c(Cl)cc(C(F)(C(F)(F)F)C(F)(F)C(F)(F)F)cc2Br)c1OC (centres unmarked) [B177],190 °C,–,–,–,–,–,–,–
COc1c(NC(=O)c2ccc(C#N)cn2)cccc1C(=O)Nc1c(Cl)cc(C(F)(C(F)(F)F)C(F)(F)C(F)(F)F)cc1Br (centres unmarked) [B208],208 to 210 °C,–,–,–,–,–,–,–
COc1c(NC(=O)c2c(Cl)cc(Br)cc2Cl)cccc1C(=O)Nc1c(Cl)cc(C(F)(C(F)(F)F)C(F)(F)C(F)(F)F)cc1Br (centres unmarked) [B209],250 °C,–,–,–,–,–,–,–
COc1c(NC(=O)c2cnc(Cl)nc2Cl)cccc1C(=O)Nc1c(Cl)cc(C(F)(C(F)(F)F)C(F)(F)C(F)(F)F)cc1Br (centres unmarked) [B210],114 to 115 °C,–,–,–,–,–,–,–
COc1c(NC(=O)c2c(C)cc(Cl)cc2Cl)cccc1C(=O)Nc1c(Cl)cc(C(F)(C(F)(F)F)C(F)(F)C(F)(F)F)cc1Br (centres unmarked) [B211],113 to 118 °C,–,–,–,–,–,–,–
COc1c(NC(=O)c2cc([N+](=O)[O-])c(F)cc2C)cccc1C(=O)Nc1c(Cl)cc(C(F)(C(F)(F)F)C(F)(F)C(F)(F)F)cc1Br (centres unmarked) [B212],83 to 84 °C,–,–,–,–,–,–,–
COc1c(NC(=O)c2ccccc2C)cccc1C(=O)Nc1c(Cl)cc(C(F)(C(F)(F)F)C(F)(F)C(F)(F)F)cc1Cl (centres unmarked) [C4],–,≥ 80%,≥ 80%,≥ 80%,≥ 80%,≥ 80%,≥ 80%,≥ 80%
COc1c(NC(=O)c2ccccc2Cl)cccc1C(=O)Nc1c(Cl)cc(C(F)(C(F)(F)F)C(F)(F)C(F)(F)F)cc1Cl (centres unmarked) [C5],–,≥ 80%,≥ 80%,≥ 80%,≥ 80%,≥ 80%,≥ 80%,≥ 80%
COc1c(NC(=O)c2ccc(C#N)cc2)cccc1C(=O)Nc1c(Cl)cc(C(F)(C(F)(F)F)C(F)(F)C(F)(F)F)cc1Cl (centres unmarked) [C6],–,≥ 80%,≥ 80%,≥ 80%,≥ 80%,≥ 80%,≥ 80%,≥ 80%
COc1c(NC(=O)c2ccc(C)cc2)cccc1C(=O)Nc1c(Cl)cc(C(F)(C(F)(F)F)C(F)(F)C(F)(F)F)cc1Cl (centres unmarked) [C8],–,≥ 80%,≥ 80%,≥ 80%,≥ 80%,≥ 80%,≥ 80%,≥ 80%
COc1c(NC(=O)c2ccc(F)cc2)cccc1C(=O)Nc1c(Cl)cc(C(F)(C(F)(F)F)C(F)(F)C(F)(F)F)cc1Cl (centres unmarked) [C19],–,≥ 80%,≥ 80%,≥ 80%,≥ 80%,≥ 80%,≥ 80%,≥ 80%
COc1c(NC(=O)c2ccc(C#N)cc2)cccc1C(=O)Nc1c(Cl)cc(C(F)(C(F)(F)F)C(F)(F)F)cc1Cl [E4],–,≥ 80%,≥ 80%,≥ 80%,≥ 80%,≥ 80%,≥ 80%,≥ 80%
COc1c(NC(=O)c2ccc([N+](=O)[O-])cc2)cccc1C(=O)Nc1c(Cl)cc(C(F)(C(F)(F)F)C(F)(F)F)cc1Cl [E5],–,≥ 80%,≥ 80%,≥ 80%,≥ 80%,≥ 80%,≥ 80%,≥ 80%
COc1c(NC(=O)c2ccc([N+](=O)[O-])cc2Cl)cccc1C(=O)Nc1c(Cl)cc(C(F)(C(F)(F)F)C(F)(F)F)cc1Cl [E9],–,≥ 80%,≥ 80%,≥ 80%,≥ 80%,≥ 80%,≥ 80%,≥ 80%
COc1c(NC(=O)c2ccc(C(F)(F)F)cc2)cccc1C(=O)Nc1c(Cl)cc(C(F)(C(F)(F)F)C(F)(F)F)cc1Cl [E13],–,≥ 80%,≥ 80%,≥ 80%,≥ 80%,≥ 80%,≥ 80%,≥ 80%
COc1c(NC(=O)c2ccc(F)cc2)cccc1C(=O)Nc1c(Cl)cc(C(F)(C(F)(F)F)C(F)(F)F)cc1Cl [E17],–,≥ 80%,≥ 80%,≥ 80%,≥ 80%,≥ 80%,≥ 80%,≥ 80%
COc1c(NC(=O)c2ccc(F)cc2Cl)cccc1C(=O)Nc1c(C)cc(C(F)(C(F)(F)F)C(F)(F)C(F)(F)F)cc1C (centres unmarked) [F30],–,≥ 80%,≥ 80%,≥ 80%,≥ 80%,≥ 80%,≥ 80%,≥ 80%
COc1c(NC(=O)c2ccc([N+](=O)[O-])cc2)cccc1C(=O)Nc1c(C)cc(C(F)(C(F)(F)F)C(F)(F)F)cc1C [K2],–,≥ 80%,≥ 80%,≥ 80%,≥ 80%,≥ 80%,≥ 80%,≥ 80%
